Results on 6 molecules are retold here after patent publication US6602853B1, “Antigenic peptides reacting with anti-ovary antibodies” (Bio Merieux, priority 1996, dated 2003).

Bridges are numbered along the chain shown (N, C = ends). Where no end group is shown, it is not given here.

In test [1] the test system is anti-ovary antibodies (AOA). Kind of test: ELISA on 30 patient sera: correlation of serum reactivity toward crude ovarian antigen and toward each peptide (Example 2). The test is classed as binding, human. The conditions noted are these: for r value, correlation between reactivity of sera toward ovarian antigen and toward the peptide, IgA AOA / r value, correlation between reactivity of sera toward ovarian antigen and toward the peptide, IgG AOA / r value, correlation between reactivity of sera toward ovarian antigen and toward the peptide, IgM AOA / correlation between reactivity of sera toward ovarian antigen and toward the antigen tested, in words: 30 sera from patients, ELISA; for r value, correlation between reactivity of sera toward ovarian antigen and toward the peptide, IgA AOA: isotype IgA; for r value, correlation between reactivity of sera toward ovarian antigen and toward the peptide, IgG AOA: isotype IgG; for r value, correlation between reactivity of sera toward ovarian antigen and toward the peptide, IgM AOA: isotype IgM; for antigenic or immunogenic activity toward anti-ovary antibodies, in words: comparison among oligopeptides, Example 2; for correlation between reactivity of sera toward ovarian antigen and toward the antigen tested, in words: compared among antigens. The procedure:
(§1) The concentration of molecules to be adsorbed was determined by checkerboard experiments for each antigen. It is about 1 μg per well.
(§2) The binding of the antigens to the solid phase is performed in one night at +4° C. in the amount of 100 μl per well of the solution of antigen in carbonate-bicarbonate buffer. The plate is emptied. The sites of the solid phase still unoccupied are saturated on incubation for one hour at 37° C. with 200 μl per well of 5% powdered milk reconstituted in PBS.
The plate is emptied and washed 3 times in PBS. The samples are distributed in the amount of 100 μl per well. The plate is incubated for 45 minutes at 37° C.
(§3) The anti-isotypes are diluted in the same solution that was used for the dilution of the samples:
(§4) The plate is again emptied and washed 3 times in PBS. Then the anti-isotypes are distributed in the amount of 100 μl per well. The plate is incubated for 45 minutes at 37° C.
(§5) The developer solution is prepared on the spot, as follows for one plate:
(§6) After 3 further washings of the plate, 100 μl of developer solution are distributed into each well. After appearance of a yellow colour of greater or lesser intensity the reaction is stopped with 50 μl of H2SO4. The plate is read on the spectrophotometer at 492 nm using the Multiskan II reader.
Any ratio greater than 1 is considered as positive.
These four peptides obtained in lyophilized form were, after reconstitution and dialysis, used as antigens in a series of ELISA tests on 30 sera from patients.
Moreover, these same sera were tested against the crude ovarian antigens.
The immunoenzymatic technique used is that described in Example 1.

The test system of the next test is anti-ovary antibodies. Kind of test: Recognition by serums containing anti-ovary antibodies. It counts as binding.
Test [2] has as its system anti-β-FSH monoclonal antibodies 22A3G7; 5H3E8. Kind of test: Recognition by anti-β-FSH monoclonal antibodies 22A3G7 and 5H3E8. It counts as binding. The following applies: antibodies immunoreactive with metrodine and ovarian extracts.
For test [3], the system named is anti-β-FSH monoclonal antibody 7G5A1. Kind of test: Reaction with anti-β-FSH monoclonal antibody 7G5A1. The conditions noted are these: antibody only recognizing metrodine. It counts as binding.
In test [4] the test system is anti-ovary antibodies (AOA). Kind of test: ELISA on 295 sera of IVF patients: correlation of reactivity toward total ovarian extract and toward peptide SEQ ID NO:1 (Example 3). It counts as binding, human. The following applies: for r value, IgA AOA vs IgA SEQ ID No.1: crude ovarian antigen IgA vs peptide IgA. How it is done:
as §1, §2
The samples to be tested are diluted in PBS to which 0.5% BSA and 0.2% Tween 20 have been added: dilution to 1/50 for the search for anti-ovary and anti-corpus luteum antibodies. The plate is emptied and washed 3 times in PBS. The samples are distributed in the amount of 100 μl per well. The plate is incubated for 45 minutes at 37° C.
as §3, §4, §5, §6
The results are firstly expressed as optical density (O.D.) then calculated as ratios relative to a control sample at the limit of positivity. Any ratio greater than 1 is considered as positive.
[…] and ninety-five sera were tested in duplicate, using the immunoenzymatic method described above, with, firstly, the total ovarian extract, and, secondly, the peptide SEQ ID NO: 1. For each antigen, the three immunoglobulin isotypes IgG, IgA and IgM were studied.
The patients included in the study were all scheduled for IVF. Their average age was 32.7±4.2 years. The average duration of the sterility was 4.8±2.8 years.
In 209 cases the serum was collected on the eighth day of the stimulation, and in 84 cases the serum was collected 15 days after the puncture.
The results of the correlation obtained between the reactivity of the sera toward the crude ovarian antigen and that of the same sera toward the peptide SEQ ID NO:1 tested, and expressed by an r value, are shown in Table II below: […]

Consider “SEQ ID No.4: sequence of 16 amino acids, bridged by a disulfide bond in position 7 and 10, amino acids 78-93 of the β-chain of FSH (VATQCHCGKCDSDSTD; disulfide 7-10)”, for which, in test [1], the “r value, correlation between reactivity of sera toward ovarian antigen and toward the peptide, IgA AOA” value came out at 0.49; the “r value, correlation between reactivity of sera toward ovarian antigen and toward the peptide, IgG AOA” value was 0.59; the “r value, correlation between reactivity of sera toward ovarian antigen and toward the peptide, IgM AOA” value stood at 0.69; the “antigenic or immunogenic activity toward anti-ovary antibodies, in words” value is listed as “weaker activity”.

For the molecule “TQCHCGKC (cysteine pairing not given here) [SEQ ID No.5]”, in test [1], the “correlation between reactivity of sera toward ovarian antigen and toward the antigen tested, in words” value (shortened to “correlation between reactivity … in words”) was “same results as those obtained for the peptide SEQ ID No.1”; the “antigenic or immunogenic activity toward anti-ovary antibodies, in words” value is on record as “identical activity”. The “recognition by serums containing anti-ovary antibodies” value in the test on anti-ovary antibodies was “recognized”. In addition, the “recognition by anti-β-FSH monoclonal antibodies 22A3G7; 5H3E8” value in test [2] is “recognized”. The “reaction with anti-β-FSH monoclonal antibody 7G5A1” value in test [3] is recorded as “does not react”.

On to “SEQ ID No.2: sequence of 16 amino acids, bridged by a disulfide bond in position 5 and 7, amino acids 78-93 of the β-chain of FSH (VATQCHCGKCDSDSTD; disulfide 5-7)”, for which, in test [1], the “r value, correlation between reactivity of sera toward ovarian antigen and toward the peptide, IgA AOA” value is on record as 0.28; the “r value, correlation between reactivity of sera toward ovarian antigen and toward the peptide, IgG AOA” value was found to be 0.44; the “r value, correlation between reactivity of sera toward ovarian antigen and toward the peptide, IgM AOA” value came out at 0.75; the “antigenic or immunogenic activity toward anti-ovary antibodies, in words” value is given as “weaker activity”.

Turning to “SEQ ID No.1: linear sequence of 16 amino acids corresponding to the sequence of amino acids 78-93 of the β-chain of FSH (VATQCHCGKCDSDSTD; human FSH)”, in test [1], the “correlation between reactivity … in words” value was “best correlation coefficients”; the “r value, correlation between reactivity of sera toward ovarian antigen and toward the peptide, IgA AOA” value is on record as 0.46; the “r value, correlation between reactivity of sera toward ovarian antigen and toward the peptide, IgG AOA” value amounted to 0.74; the “r value, correlation between reactivity of sera toward ovarian antigen and toward the peptide, IgM AOA” value is given as 0.81. In addition, in test [1], the “antigenic or immunogenic activity toward anti-ovary antibodies, in words” value is given as “identical activity”. For the same molecule, in test [4], the “r value, IgA AOA vs IgA SEQ ID No.1” value was 0.11. Also, in test [4] (listed as SEQ ID NO:1), the “r value, IgA AOA vs IgA SEQ ID No.1” value amounted to 0.10. In test [4] (crude ovarian antigen IgA vs peptide IgG), the “r value, IgA AOA vs IgG SEQ ID No.1” value is given as 0.12. Also, the “r value, IgA AOA vs IgM SEQ ID No.1” value in test [4] (crude ovarian antigen IgA vs peptide IgM) came out at 0.01. Moreover, the “r value, IgG AOA vs IgA SEQ ID No.1” value in test [4] (crude ovarian antigen IgG vs peptide IgA) stood at 0.12. The “r value, IgG AOA vs IgG SEQ ID No.1” value in test [4] (crude ovarian antigen IgG vs peptide IgG) came out at 0.18. Besides, the “r value, IgM AOA vs IgA SEQ ID No.1” value in test [4] (crude ovarian antigen IgM vs peptide IgA) was 0.06. In addition, the “r value, IgM AOA vs IgG SEQ ID No.1” value in test [4] (crude ovarian antigen IgM vs peptide IgG) was 0.10. Besides, in test [4] (crude ovarian antigen IgM vs peptide IgM), the “r value, IgM AOA vs IgM SEQ ID No.1” value came out at 0.27. Besides, the “recognition by serums containing anti-ovary antibodies” value with anti-ovary antibodies is “recognized”. Further, the “recognition by anti-β-FSH monoclonal antibodies 22A3G7; 5H3E8” value in test [2] is listed as “recognized”. For the same molecule, in test [3], the “reaction with anti-β-FSH monoclonal antibody 7G5A1” value is recorded as “does not react”.

Regarding “SEQ ID No.3: sequence of 16 amino acids, bridged by a disulfide bond in position 5 and 10, amino acids 78-93 of the β-chain of FSH (VATQCHCGKCDSDSTD; disulfide 5-10)”, in test [1], the “r value, correlation between reactivity of sera toward ovarian antigen and toward the peptide, IgA AOA” value is listed as 0.49; the “r value, correlation between reactivity of sera toward ovarian antigen and toward the peptide, IgG AOA” value worked out at 0.79; the “r value, correlation between reactivity of sera toward ovarian antigen and toward the peptide, IgM AOA” value came to 0.71; the “antigenic or immunogenic activity toward anti-ovary antibodies, in words” value is “weaker activity”.

B1: β-chain of FSH: β-chain (β-subunit) of follicle stimulating hormone (protein)
chain: NSCELTNITIAIEKEECRFCISINTTWCAGYCYTRDLVYKDPARPKIQKTCTFKELVYETVRVPGCAHHADSLYTYPVATQCHCGKCDSDSTDCTVRGLGPSYCSFGEMKE
Regarding B1, in test [1], the “correlation between reactivity … in words” value was “same results as those obtained for the peptide SEQ ID No.1”.
